Test results: EP0454444A1, “Glutarimide derivatives and herbicides” (NISSAN CHEMICAL INDUSTRIES LTD., priority 1990, dated 1991)

Assays:
Assay in all cases: Herbicidal effect test by soil treatment
Assay type in all cases: in vivo
corn (Zea mays) = details: crop plant, three weeks after spraying
Description: (§1) In a plastic box of 15 cm length, 22 cm width and 6 cm depth, there was placed a sterilized dilvial soil, and seeds of barnyardgrass (Echinochloa crusgalli), large crabgrass (Digitaria adscendens), annual sedge (Cyperus microiria), black nightshade (Solanum nigrum L.), hairly galinosoga (Galinsoga ciliat), rorippa ssp. (Rorippa atrovirens), rice (Oryza sativa), corn (Zea mays), wheat (Triticum aestivum), soybean (Glysine max) and cotton (Gossypium herbaceum) were sown mixedly. After covering soil to about 1 cm over the seeds, herbicides were sprayed evenly on the soil surface to predetermined proportions of the active ingredient In spraying, the wettable powder, emulsifiable concentrate, dry flowable or flowable in the above formulation examples were diluted with water and sprayed over the entire surface by means of a small sprayer. Three weeks after spraying, the herbicidal effect on crop plants including rice, corn, wheat, soybean, cotton and various kinds of weeds were examined according to the judgement criteria shown below. Judgement criteria
(§2) The above growth control rates are determined by measuring the top fresh weights of the treated plants and those of the non-treated plants, and culculated from the following formula: [formula]

[1] = test system: hairly galinosoga (Galinsoga ciliat); details: three weeks after spraying
Description: as §1, §2

[2] = test system: wheat (Triticum aestivum); details: crop plant, three weeks after spraying
Description: as §1, §2

soybean (Glysine max) = details: crop plant, three weeks after spraying
Description: as §1, §2

[3] = test system: cotton (Gossypium herbaceum); details: crop plant, three weeks after spraying
Description: as §1, §2

rice (Oryza sativa) = details: crop plant, three weeks after spraying
Description: as §1, §2

[4] = test system: annual sedge (Cyperus microiria); details: three weeks after spraying
Description: as §1, §2

[5] = test system: rorippa ssp. (Rorippa atrovirens); details: three weeks after spraying
Description: as §1, §2

[6] = test system: black nightshade (Solanum nigrum L.); details: three weeks after spraying
Description: as §1, §2

[7] = test system: large crabgrass (Digitaria adscendens); details: three weeks after spraying
Description: as §1, §2

Compound: C#CCN1C(=O)COc2ccc(N3C(=O)CC(C(F)(F)F)CC3=O)cc21 [1-24]
- herbicidal effect, T (Zea mays) (corn (Zea mays); application amount 0.4 g/a): 0 (Growth control rates of less than 5% (substantially no effect))
- herbicidal effect, T (Zea mays) (corn (Zea mays); application amount 0.8 g/a): 2 (Growth control rates of 20 to 40%)
- herbicidal effect, T (Zea mays) (corn (Zea mays); application amount 1.6 g/a): 4 (Growth control rates of 70 to 90%)
- herbicidal effect, D (Galinsoga ciliat) ([1]; application amount 0.4 g/a): 5 (Growth control,rates of more than 90% (almost completely withered))
- herbicidal effect, D (Galinsoga ciliat) ([1]; application amount 0.8 g/a): 5 (Growth control,rates of more than 90% (almost completely withered))
- herbicidal effect, D (Galinsoga ciliat) ([1]; application amount 1.6 g/a): 5 (Growth control,rates of more than 90% (almost completely withered))
- herbicidal effect, W (Triticum vulgare) ([2]; application amount 0.4 g/a): 0 (Growth control rates of less than 5% (substantially no effect))
- herbicidal effect, W (Triticum vulgare) ([2]; application amount 0.8 g/a): 1 (Growth control rates of 5 to 20%)
- herbicidal effect, W (Triticum vulgare) ([2]; application amount 1.6 g/a): 4 (Growth control rates of 70 to 90%)
- herbicidal effect, S (Glysine max) (soybean (Glysine max); application amount 0.4 g/a): 0 (Growth control rates of less than 5% (substantially no effect))
- herbicidal effect, S (Glysine max) (soybean (Glysine max); application amount 0.8 g/a): 0 (Growth control rates of less than 5% (substantially no effect))
- herbicidal effect, S (Glysine max) (soybean (Glysine max); application amount 1.6 g/a): 1 (Growth control rates of 5 to 20%)
- herbicidal effect, C (Gossypium herbaceum) ([3]; application amount 0.4 g/a): 0 (Growth control rates of less than 5% (substantially no effect))
- herbicidal effect, C (Gossypium herbaceum) ([3]; application amount 0.8 g/a): 1 (Growth control rates of 5 to 20%)
- herbicidal effect, C (Gossypium herbaceum) ([3]; application amount 1.6 g/a): 3 (Growth control rates of 40 to 70%)
- herbicidal effect, R (Oryza sativa) (rice (Oryza sativa); application amount 0.4 g/a): 1 (Growth control rates of 5 to 20%)
- herbicidal effect, R (Oryza sativa) (rice (Oryza sativa); application amount 0.8 g/a): 4 (Growth control rates of 70 to 90%)
- herbicidal effect, R (Oryza sativa) (rice (Oryza sativa); application amount 1.6 g/a): 5 (Growth control,rates of more than 90% (almost completely withered))
- herbicidal effect, K (Cyperus microiria) ([4]; application amount 0.4 g/a): 5 (Growth control,rates of more than 90% (almost completely withered))
- herbicidal effect, K (Cyperus microiria) ([4]; application amount 0.8 g/a): 5 (Growth control,rates of more than 90% (almost completely withered))
- herbicidal effect, K (Cyperus microiria) ([4]; application amount 1.6 g/a): 5 (Growth control,rates of more than 90% (almost completely withered))
- herbicidal effect, I (Rorippa indica) ([5]; application amount 0.4 g/a): 5 (Growth control,rates of more than 90% (almost completely withered))
- herbicidal effect, I (Rorippa indica) ([5]; application amount 0.8 g/a): 5 (Growth control,rates of more than 90% (almost completely withered))
- herbicidal effect, I (Rorippa indica) ([5]; application amount 1.6 g/a): 5 (Growth control,rates of more than 90% (almost completely withered))
- herbicidal effect, H (Solanum nigrum L.) ([6]; application amount 0.4 g/a): 5 (Growth control,rates of more than 90% (almost completely withered))
- herbicidal effect, H (Solanum nigrum L.) ([6]; application amount 0.8 g/a): 5 (Growth control,rates of more than 90% (almost completely withered))
- herbicidal effect, H (Solanum nigrum L.) ([6]; application amount 1.6 g/a): 5 (Growth control,rates of more than 90% (almost completely withered))
- herbicidal effect, M (Digitaria adscendens) ([7]; application amount 0.4 g/a): 5 (Growth control,rates of more than 90% (almost completely withered))
- herbicidal effect, M (Digitaria adscendens) ([7]; application amount 0.8 g/a): 5 (Growth control,rates of more than 90% (almost completely withered))
- herbicidal effect, M (Digitaria adscendens) ([7]; application amount 1.6 g/a): 5 (Growth control,rates of more than 90% (almost completely withered))

Compound: CCOC(=O)c1cc(N2C(=O)CC(c3ccccc3)CC2=O)c(F)cc1Cl [1-29]
- herbicidal effect, T (Zea mays) (corn (Zea mays); application amount 1.6 g/a): 0 (Growth control rates of less than 5% (substantially no effect))
- herbicidal effect, T (Zea mays) (corn (Zea mays); application amount 3.2 g/a): 0 (Growth control rates of less than 5% (substantially no effect))
- herbicidal effect, T (Zea mays) (corn (Zea mays); application amount 6.3 g/a): 0 (Growth control rates of less than 5% (substantially no effect))
- herbicidal effect, D (Galinsoga ciliat) ([1]; application amount 1.6 g/a): 5 (Growth control,rates of more than 90% (almost completely withered))
- herbicidal effect, D (Galinsoga ciliat) ([1]; application amount 3.2 g/a): 5 (Growth control,rates of more than 90% (almost completely withered))
- herbicidal effect, D (Galinsoga ciliat) ([1]; application amount 6.3 g/a): 5 (Growth control,rates of more than 90% (almost completely withered))
- herbicidal effect, W (Triticum vulgare) ([2]; application amount 1.6 g/a): 0 (Growth control rates of less than 5% (substantially no effect))
- herbicidal effect, W (Triticum vulgare) ([2]; application amount 3.2 g/a): 0 (Growth control rates of less than 5% (substantially no effect))
- herbicidal effect, W (Triticum vulgare) ([2]; application amount 6.3 g/a): 0 (Growth control rates of less than 5% (substantially no effect))
- herbicidal effect, S (Glysine max) (soybean (Glysine max); application amount 1.6 g/a): 0 (Growth control rates of less than 5% (substantially no effect))
- herbicidal effect, S (Glysine max) (soybean (Glysine max); application amount 3.2 g/a): 0 (Growth control rates of less than 5% (substantially no effect))
- herbicidal effect, S (Glysine max) (soybean (Glysine max); application amount 6.3 g/a): 0 (Growth control rates of less than 5% (substantially no effect))
- herbicidal effect, C (Gossypium herbaceum) ([3]; application amount 1.6 g/a): 0 (Growth control rates of less than 5% (substantially no effect))
- herbicidal effect, C (Gossypium herbaceum) ([3]; application amount 3.2 g/a): 0 (Growth control rates of less than 5% (substantially no effect))
- herbicidal effect, C (Gossypium herbaceum) ([3]; application amount 6.3 g/a): 0 (Growth control rates of less than 5% (substantially no effect))
- herbicidal effect, R (Oryza sativa) (rice (Oryza sativa); application amount 1.6 g/a): 0 (Growth control rates of less than 5% (substantially no effect))
- herbicidal effect, R (Oryza sativa) (rice (Oryza sativa); application amount 3.2 g/a): 0 (Growth control rates of less than 5% (substantially no effect))
- herbicidal effect, R (Oryza sativa) (rice (Oryza sativa); application amount 6.3 g/a): 0 (Growth control rates of less than 5% (substantially no effect))
- herbicidal effect, K (Cyperus microiria) ([4]; application amount 1.6 g/a): 5 (Growth control,rates of more than 90% (almost completely withered))
- herbicidal effect, K (Cyperus microiria) ([4]; application amount 3.2 g/a): 5 (Growth control,rates of more than 90% (almost completely withered))
- herbicidal effect, K (Cyperus microiria) ([4]; application amount 6.3 g/a): 5 (Growth control,rates of more than 90% (almost completely withered))
- herbicidal effect, I (Rorippa indica) ([5]; application amount 1.6 g/a): 5 (Growth control,rates of more than 90% (almost completely withered))
- herbicidal effect, I (Rorippa indica) ([5]; application amount 3.2 g/a): 5 (Growth control,rates of more than 90% (almost completely withered))
- herbicidal effect, I (Rorippa indica) ([5]; application amount 6.3 g/a): 5 (Growth control,rates of more than 90% (almost completely withered))
- herbicidal effect, H (Solanum nigrum L.) ([6]; application amount 1.6 g/a): 5 (Growth control,rates of more than 90% (almost completely withered))
- herbicidal effect, H (Solanum nigrum L.) ([6]; application amount 3.2 g/a): 5 (Growth control,rates of more than 90% (almost completely withered))
- herbicidal effect, H (Solanum nigrum L.) ([6]; application amount 6.3 g/a): 5 (Growth control,rates of more than 90% (almost completely withered))
